Experimental data as given in ChEMBL document CHEMBL4765326, “Anchoring BODIPY photosensitizers enable pan-microbial photoinactivation” (Eur J Med Chem, 2020).
Calls of active or inactive are those of the source. The calls are words filed in the database; no cut-off is given here.

Legend:
[1] = Induction of singlet oxygen generation in DPBF solution assessed as singlet oxygen quantum yield irradiated with 80 mW/cm2 light by DPBF-based assay; format: functional
[2] = Octanol-water partition coefficient, logP of compound incubated for 24 hrs under shaking condition; format: physicochemical
Staphylococcus aureus [3] = test: Photodynamic antibacterial activity against Staphylococcus aureus assessed as bacterial eradication preincubated for 20 mins in dark condition followed by 18 J/cm2 LED light irradiation and measured after 18 hrs by broth microdilution method; format: functional; conditions: light or radiation study, 18.33 h, time 1100 min
Escherichia coli [4] = test: Photodynamic antibacterial activity against Escherichia coli assessed as bacterial eradication preincubated for 20 mins in dark condition followed by 18 J/cm2 LED light irradiation and measured after 18 hrs by broth microdilution method; format: functional; conditions: light or radiation study, 18.33 h, time 1100 min
Candida albicans [5] = test: Photodynamic antifungal activity against Candida albicans assessed as fungal eradication preincubated for 20 mins in dark condition followed by 18 J/cm2 LED light irradiation and measured after 18 hrs by broth microdilution method; format: functional; conditions: light or radiation study, 18.33 h, time 1100 min
Staphylococcus aureus [6] = test: Photodynamic antibacterial activity against methicillin resistant Staphylococcus aureus assessed as bacterial eradication preincubated for 20 mins in dark condition followed by 18 J/cm2 LED light irradiation and measured after 18 hrs by broth microdilution method; format: functional; conditions: light or radiation study, 18.33 h, time 1100 min
Staphylococcus aureus [7] = test: Antibacterial activity against Staphylococcus aureus up to 80 uM by broth microdilution method; format: functional, organism-based; conditions: dose microM <=80
Escherichia coli [8] = test: Antibacterial activity against Escherichia coli up to 80 uM by broth microdilution method; format: functional, organism-based; conditions: dose microM <=80
Candida albicans [9] = test: Antifungal activity against Candida albicans up to 80 uM by broth microdilution method; format: functional, organism-based; conditions: dose microM <=80
Staphylococcus aureus [10] = test: Antibacterial activity against methicillin resistant Staphylococcus aureus up to 80 uM by broth microdilution method; format: functional, organism-based; conditions: dose microM <=80
[11] = Drug localization in peripheral edge of Escherichia coli at 10 uM incubated for 30 mins by fluorescent dye based confocal microscopic analysis; format: ADME; conditions: 0.5 h
Cell membrane [12] = test: Disruption of cell membrane integrity in Staphylococcus aureus at 2 uM irradiated with 6J/cm2 light followed by compound exposure for 10 mins by FL-4L/propidium iodide Live/dead staining based laser confocal microscopic analysis
Staphylococcus aureus [13] = test: Binding affinity to Staphylococcus aureus cell wall assessed as bound fraction at 25 uM measured after 3 to 10 mins; conditions: time 3-10 min
Escherichia coli [14] = test: Binding affinity to Escherichia coli cell wall assessed as bound fraction at 25 uM measured after 3 to 10 mins; conditions: time 3-10 min
Candida albicans [15] = test: Binding affinity to Candida albicans cell wall assessed as bound fraction at 25 uM measured after 3 to 10 mins; conditions: time 3-10 min
Staphylococcus aureus [16] = test: Binding affinity to Staphylococcus aureus cell wall at 50 uM preincubated with 12.5 to 50 mM Ca2+ for 30 mins followed by incubation with compound for 30 mins
Escherichia coli [17] = test: Binding affinity to Escherichia coli cell wall at 50 uM preincubated with 12.5 to 50 mM Ca2+ for 30 mins followed by incubation with compound for 30 mins
Candida albicans [18] = test: Binding affinity to Candida albicans cell wall at 50 uM preincubated with 12.5 to 50 mM Ca2+ for 30 mins followed by incubation with compound for 30 mins
Cell membrane [19] = test: Disruption of cell membrane integrity in Escherichia coli at 2 uM irradiated with 6J/cm2 light followed by compound exposure for 10 mins by FL-4L/propidium iodide Live/dead staining based laser confocal microscopic analysis
Candida albicans [20] = test: Disruption of cell membrane integrity in Candida albicans at 2 uM irradiated with 6J/cm2 light followed by compound exposure for 10 mins by FL-4L/propidium iodide Live/dead staining based laser confocal microscopic analysis
Cell membrane [21] = test: Binding affinity to Staphylococcus aureus cell membrane assessed as reduction in zeta potential by zetasizer-based analysis; format: subcellular
Cell membrane [22] = test: Binding affinity to Escherichia coli cell membrane assessed as reduction in zeta potential by zetasizer-based analysis; format: subcellular
Staphylococcus aureus [23] = test: Photodynamic antimicrobial activity against Staphylococcus aureus preincubated for 10 mins in dark followed by irradiation with 6J/cm2 light and measured after incubation for 36 to 48 hrs; format: functional, organism-based; conditions: dose 3-18 µM, time 2170-2890 min
Escherichia coli [24] = test: Photodynamic antimicrobial activity against Escherichia coli preincubated for 10 mins in dark followed by irradiation with 6J/cm2 light and measured after incubation for 36 to 48 hrs; format: functional, organism-based; conditions: dose 2-10 µM, time 2170-2890 min
Candida albicans [25] = test: Photodynamic antimicrobial activity against Candida albicans preincubated for 10 mins in dark followed by irradiation with 9J/cm2 light and measured after incubation for 36 to 48 hrs; format: functional, organism-based; conditions: dose 2-10 µM, time 2170-2890 min
Staphylococcus aureus [26] = test: Photodynamic antimicrobial activity against methicillin resistant Staphylococcus aureus preincubated for 10 mins in dark followed by irradiation with 6J/cm2 light and measured after incubation for 36 to 48 hrs; format: functional, organism-based; conditions: dose 2-10 µM, time 2170-2890 min
Staphylococcus aureus [27] = test: Antimicrobial activity against Staphylococcus aureus incubated for 36 to 48 hrs under dark conditions; format: functional, organism-based; conditions: time 36-48 hrs
Escherichia coli [28] = test: Antimicrobial activity against Escherichia coli incubated for 36 to 48 hrs under dark conditions; format: functional, organism-based; conditions: time 36-48 hrs
Candida albicans [29] = test: Antimicrobial activity against Candida albicans incubated for 36 to 48 hrs under dark conditions; format: functional, organism-based; conditions: time 36-48 hrs
Staphylococcus aureus [30] = test: Antimicrobial activity against methicillin resistant Staphylococcus aureus incubated for 36 to 48 hrs under dark conditions; format: functional, organism-based; conditions: time 36-48 hrs
HaCaT [31] = test: Dark toxicity in human HaCaT cells assessed as reduction in cell viability incubated for 30 mins under dark conditions by MTT assay; format: cell-based; conditions: 0.5 h
HaCaT [32] = test: Phototoxicity against human HaCaT cells assessed as reduction in cell viability preincubated for 30 mins followed by irradiation with 6J/cm2 light and measured after 24 hrs by MTT assay; format: cell-based; conditions: light or radiation study
Staphylococcus aureus [33] = test: Light dose-dependent antimicrobial activity against Staphylococcus aureus at 2 to 4 uM preincubated for 10 mins in dark followed by irradiation with 0.6 to 6J/cm2 light dose incubated for 36 to 48 hrs; format: functional, organism-based; conditions: dose 2-4 µM, time 2170-2890 min
Escherichia coli [34] = test: Light dose-dependent antimicrobial activity against Escherichia coli at 2 to 4 uM preincubated for 10 mins in dark followed by irradiation with 0.6 to 6J/cm2 light dose incubated for 36 to 48 hrs; format: functional, organism-based; conditions: dose 2-4 µM, time 2170-2890 min
Candida albicans [35] = test: Light dose-dependent antimicrobial activity against Candida albicans at 2 to 4 uM preincubated for 10 mins in dark followed by irradiation with 0.6 to 9J/cm2 light dose incubated for 36 to 48 hrs; format: functional, organism-based; conditions: dose 2-4 µM, time 2170-2890 min
Staphylococcus aureus [36] = test: Light dose-dependent antimicrobial activity against methicillin-resistant Staphylococcus aureus at 2 to 4 uM preincubated for 10 mins in dark followed by irradiation with 0.6 to 6J/cm2 light dose incubated for 36 to 48 hrs; format: functional, organism-based; conditions: dose 2-4 µM, time 2170-2890 min

CC1=C(I)C(C)=[N+]2C1=Cc1c(C)c(I)c(C)n1[B-]2(Oc1cc[n+](C)cc1)Oc1cc[n+](C)cc1 gave an Activity [1] of 0.61, a logP at 24 h [2] of -0.93 and an MIC (Staphylococcus aureus [3]) of 25 µM. The MIC (Escherichia coli [4]) was 25 µM, the MIC (Candida albicans [5]) was 40 µM and the MIC (Staphylococcus aureus [6]) was 40 µM. For the same compound, the Activity (Staphylococcus aureus [7]) was “inactive”, the Activity (Escherichia coli [8]) was “inactive” and the Activity (Candida albicans [9]) was “inactive”. The Activity (Staphylococcus aureus [10]) was “inactive”.

Work on CC1=C(I)C(C)=[N+]2C1=Cc1c(C)c(I)c(C)n1[B-]2(OCCCc1cc[n+](C)cc1)OCCCc1cc[n+](C)cc1 yielded an Activity [1] of 0.74, a logP at 24 h [2] of -0.91 and an MIC (Staphylococcus aureus [3]) of 1.25 µM. For the same compound, the MIC (Escherichia coli [4]) was 1.25 µM, the MIC (Candida albicans [5]) was 5 µM and the MIC (Staphylococcus aureus [6]) was 1.25 µM. The Activity (Staphylococcus aureus [7]) was “inactive”, the Activity (Escherichia coli [8]) was “inactive” and the Activity (Candida albicans [9]) was “inactive”. For the same compound, the Activity (Staphylococcus aureus [10]) was “inactive”.

With CC1=CC(C)=[N+]2C1=Cc1c(C)cc(C)n1[B-]2(OCCC[N+](C)(C)C)OCCC[N+](C)(C)C.[I-].[I-] the logP at 24 h [2] was -1.17 and the Drug uptake [11] was “Active”.

For CC1=C(I)C(C)=[N+]2C1=Cc1c(C)c(I)c(C)n1[B-]2(OCCc1cc[n+](C)cc1)OCCc1cc[n+](C)cc1, the Activity (Cell membrane [12]) was “inactive”, the Activity [1] was 0.74 and the logP at 24 h [2] was -1.14. The MIC (Staphylococcus aureus [3]) was 20 µM, the MIC (Escherichia coli [4]) was 0.625 µM and the MIC (Candida albicans [5]) was 40 µM. The MIC (Staphylococcus aureus [6]) was 20 µM, the Activity (Staphylococcus aureus [13]) was 55% and the Activity (Escherichia coli [14]) was 51.9%. For the same compound, the Activity (Candida albicans [15]) was 34%, the Activity (Staphylococcus aureus [16]) was “inactive” and the Activity (Escherichia coli [17]) was “inactive”. For the same compound, the Activity (Candida albicans [18]) was “inactive”, the Activity (Cell membrane [19]) was “Active” and the Activity (Candida albicans [20]) was “inactive”. The Activity (Staphylococcus aureus [7]) was “inactive”, the Activity (Escherichia coli [8]) was “inactive” and the Activity (Candida albicans [9]) was “inactive”. The Activity (Staphylococcus aureus [10]) was “inactive”, the Activity (Cell membrane [21]) was “Active” and the Activity (Cell membrane [22]) was “Active”.

For CC1=C(I)C(C)=[N+]2C1=Cc1c(C)c(I)c(C)n1[B-]2(C#CC[N+](C)(C)C)C#CC[N+](C)(C)C.[I-].[I-], the Activity (Cell membrane [12]) was “Active”, the Activity [1] was 0.68 and the logP at 24 h [2] was -1.21. The MIC (Staphylococcus aureus [3]) was 1.25 µM, the MIC (Escherichia coli [4]) was 0.625 µM and the MIC (Candida albicans [5]) was 1.25 µM. For the same compound, the MIC (Staphylococcus aureus [6]) was 1.25 µM, the Activity (Staphylococcus aureus [23]) was “Dose-dependent effect” and the Activity (Escherichia coli [24]) was “Dose-dependent effect”. For the same compound, the Activity (Candida albicans [25]) was “Dose-dependent effect”, the Activity (Staphylococcus aureus [26]) was “Dose-dependent effect” and the Activity (Staphylococcus aureus [27]) was “inactive”. The Activity (Escherichia coli [28]) was “inactive”, the Activity (Candida albicans [29]) was “inactive” and the Activity (Staphylococcus aureus [30]) was “inactive”. For the same compound, the Activity (Staphylococcus aureus [13]) was 85.3%, the Activity (Escherichia coli [14]) was 71% and the Activity (Candida albicans [15]) was 90.8%. The Activity (Staphylococcus aureus [16]) was “inactive”, the Activity (Escherichia coli [17]) was “inactive” and the Activity (Candida albicans [18]) was “inactive”. For the same compound, the Activity (Cell membrane [19]) was “Active”, the Activity (Candida albicans [20]) was “Active” and the Activity (HaCaT [31]) was “Non-Toxic”. The IC50 (HaCaT [32]) was 4 µM, the Activity (Staphylococcus aureus [7]) was “inactive” and the Activity (Escherichia coli [8]) was “inactive”. For the same compound, the Activity (Candida albicans [9]) was “inactive”, the Activity (Staphylococcus aureus [10]) was “inactive” and the Activity (Staphylococcus aureus [33]) was “Active”. The Activity (Escherichia coli [34]) was “Active”, the Activity (Candida albicans [35]) was “Active” and the Activity (Staphylococcus aureus [36]) was “Active”. For the same compound, the Activity (Cell membrane [21]) was “Active” and the Activity (Cell membrane [22]) was “Active”.

With CC1=C(I)C(C)=[N+]2C1=Cc1c(C)c(I)c(C)n1[B-]2(OCC[N+](C)(C)C)OCC[N+](C)(C)C the Activity [1] was 0.58, the logP at 24 h [2] was -1.21 and the MIC (Staphylococcus aureus [3]) was 30 µM. For the same compound, the MIC (Escherichia coli [4]) was 40 µM, the MIC (Candida albicans [5]) was 40 µM and the MIC (Staphylococcus aureus [6]) was 20 µM. For the same compound, the Activity (Staphylococcus aureus [7]) was “inactive”, the Activity (Escherichia coli [8]) was “inactive” and the Activity (Candida albicans [9]) was “inactive”. For the same compound, the Activity (Staphylococcus aureus [10]) was “inactive”.

CC1=C(I)C(C)=[N+]2C1=Cc1c(C)c(I)c(C)n1[B-]2(OCc1cc[n+](C)cc1)OCc1cc[n+](C)cc1 gave an Activity [1] of 0.59, a logP at 24 h [2] of -1.21 and an MIC (Staphylococcus aureus [3]) of 50 µM. The MIC (Escherichia coli [4]) was 25 µM, the MIC (Candida albicans [5]) was 40 µM and the MIC (Staphylococcus aureus [6]) was 40 µM. For the same compound, the Activity (Staphylococcus aureus [7]) was “inactive”, the Activity (Escherichia coli [8]) was “inactive” and the Activity (Candida albicans [9]) was “inactive”. For the same compound, the Activity (Staphylococcus aureus [10]) was “inactive”.
